From patent US10098974B2, “Catalytic radiofluorination” (priority 2004, dated 2018)
Where two headings read alike, the source gives them in different places.

Experiments:
[1] = rat, microPET
Experimental: (§1) Rats (250-300 grams) or rabbits (3-4 Kg) were anesthetized and placed ventrally to the imaging position and 0.4-1 mCi of the FTPP was injected into the vain. Three-dimensional dynamic data were acquired in list mode for one hour starting from the injection of the radiolabeled ligand.
(§2) PET imaging was conducted with a microPET, P4 system (Concorde Microsystems Inc, Knoxville, Tenn.). The length of the field of view is 8 cm and the diameter is 22 cm allowing entire upper body imaging of the rat or rabbit during a single acquisition. The imaging parameters of this system are in-plane and axial resolution of 1.2 mm full width of photopeak measured at half maximal count.

[2] = rabbit
Experimental: as §1, §2
The rabbit was anesthetized, placed in the microPET camera (body marks in the camera positioning were made) and sequential images were obtained for ten minutes following the administration of 3 mCi of N-13-ammonia (FIG. 10). One hour later, FTPP was injected followed by 60 minute sequential imaging of the rabbit (FIG. 11). Image corrections for the remaining N-13-ammonia activity were made with an appropriate program. One day later, the same rabbit underwent an LAD occlusion protocol, positioned in the same camera field of view and the above dual agent imaging sequence was repeated.

[3] = Biodistribution of FTTP in rats after intravenous administration
[4] = tested on: MCF-7; conditions: MCF-7, period of 240 minutes
[5] = tested on: C-6BAG glioma; conditions: period of 240 minutes
[6] = tested on: C6 glioma cell line; conditions: from maximum accumulation at 30 minutes
[7] = tested on: CV-1 normal cell line
[8] = 5 min post administration (Table 1)
[9] = 30 min post administration (Table 1)
[10] = 60 min post administration (Table 1)

## O=[N+]([O-])[O-].[18F]c1ccc([P+](c2ccccc2)(c2ccccc2)c2ccccc2)cc1 [FTTP, [F-18]-(4-fluorophenyl)triphenylphosphonium nitrate]
[1]
  time after injection at which heart activity reaches a plateau: 1 min
[2]; late images at 60 min
  myocardial retention: high myocardial retention
[2]; microPET
  time after injection at which heart activity reaches a plateau: 1 min
[3]; [8]
  Heart/Blood ratio: 11 % ID/g
  Heart/Liver ratio: 5 % ID/g
  Heart/Lung ratio: 2 % ID/g
[3]; [9]
  Heart/Blood ratio: 75 % ID/g
  Heart/Liver ratio: 8 % ID/g
  Heart/Lung ratio: 5 % ID/g
[3]; [10]
  Heart/Blood ratio: 70 % ID/g
  Heart/Liver ratio: 8 % ID/g
  Heart/Lung ratio: 4 % ID/g
[3]; iv, 5 min
  Bone accumulation (indication of defluorination): 0.31 ID/g
  Heart-to-lung ratio: 2.4
  Lung activity: 0.69 ID/g
  accumulation in heart relative to blood: 11 fold
  accumulation in heart relative to liver: 5 fold
  accumulation in the heart: 1.64 ID/g
  liver uptake: 0.18 ID/g
[3]; iv, 30 min
  Heart-to-lung ratio: 5.0
  Lung activity: 0.30 ID/g
  liver uptake: 0.17 ID/g
  uptake of radioactivity in the heart: 1.5 ID/g
[3]; iv, 60 min
  Bone accumulation (indication of defluorination): 0.39 ID/g
  Heart-to-lung ratio: 3.2
  Lung activity: 0.38 ID/g
  liver uptake: 0.17 ID/g

## [I-125]-p-iodophenyltriphenylphosponium nitrate [TPPI]
[4]
  cell retention: High retention
[5]
  cell retention: High retention
[6]
  cell retention: partial washout
[7]
  cell uptake: no significant uptake
